# Experiment: Anticancer human tumor 997537-175-T-J1-PDC patient-derived colon adenocarcinoma cell line growth inhibition [POLQ]
# Settings: 997537-175-T-J1-PDC complex spheroid viability, combination with POLQ inhibitors; for IC50: curve of first compound; for viability, T/C: stronger effect = lower value
# Outline: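 Three-cell-type spheroids modelling solid tumor plus stroma served as the readout system; POL inhibitors were tested individually and in combination, concentration ranges set by clinical Cmax where known.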
# [1] = second compound 0.0316 µM, first compound 0.0316 µM
# [2] = second compound 0.0316 µM, first compound 0.1 µM
# [3] = second compound 0.0316 µM, first compound 0.316 µM
# [4] = second compound 0.0316 µM, first compound 1 µM
# [5] = second compound 0.0316 µM, first compound 3.16 µM
# [6] = second compound 0.0316 µM, first compound 10 µM
# [7] = second compound 0.1 µM, first compound 0.0316 µM
# [8] = second compound 0.1 µM, first compound 0.1 µM
# [9] = second compound 0.1 µM, first compound 0.316 µM
# [10] = second compound 0.1 µM, first compound 1 µM
# [11] = second compound 0.1 µM, first compound 3.16 µM
# [12] = second compound 0.1 µM, first compound 10 µM
# [13] = second compound 0.316 µM, first compound 0.0316 µM
# [14] = second compound 0.316 µM, first compound 0.1 µM
# [15] = second compound 0.316 µM, first compound 0.316 µM
# [16] = second compound 0.316 µM, first compound 1 µM
# [17] = second compound 0.316 µM, first compound 3.16 µM
# [18] = second compound 0.316 µM, first compound 10 µM
# [19] = second compound 1 µM, first compound 0.0316 µM
# [20] = second compound 1 µM, first compound 0.1 µM
# [21] = second compound 1 µM, first compound 0.316 µM
# [22] = second compound 1 µM, first compound 1 µM
# [23] = second compound 1 µM, first compound 3.16 µM
# [24] = second compound 1 µM, first compound 10 µM
# [25] = second compound 3.16 µM, first compound 0.0316 µM
# [26] = second compound 3.16 µM, first compound 0.1 µM
# [27] = second compound 3.16 µM, first compound 0.316 µM
# [28] = second compound 3.16 µM, first compound 1 µM
# [29] = second compound 3.16 µM, first compound 3.16 µM
# [30] = second compound 3.16 µM, first compound 10 µM
# [31] = second compound 10 µM, first compound 0.0316 µM
# [32] = second compound 10 µM, first compound 0.1 µM
# [33] = second compound 10 µM, first compound 0.316 µM
# [34] = second compound 10 µM, first compound 1 µM
# [35] = second compound 10 µM, first compound 3.16 µM
# [36] = second compound 10 µM, first compound 10 µM
# 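Also: luminescence signal used as a surrogate for viable cells; spheroids exposed to drugs for seven days before readout.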
smiles,measurement,setting,value
C=CC(=O)N1CCN(c2nc(=O)n(-c3c(C)ccnc3C(C)C)c3nc(-c4c(O)cccc4F)c(F)cc23)C(C)C1 (stereo unspecified) + Cc1cccc(N(C)C(=O)C2C(O)CCN2c2nc(C)cc(C(F)(F)F)c2C#N)c1,IC50,second compound 0.0316 µM,> 10 µM
same,IC50,second compound 0.1 µM,> 10 µM
same,IC50,second compound 0.316 µM,> 10 µM
same,IC50,second compound 1 µM,> 10 µM
same,IC50,second compound 3.16 µM,> 10 µM
same,IC50,second compound 10 µM,> 10 µM
same,"viability, T/C",[1],98.6%
same,"viability, T/C",[2],96.7%
same,"viability, T/C",[3],102%
same,"viability, T/C",[4],106%
same,"viability, T/C",[5],96.3%
same,"viability, T/C",[6],103%
same,"viability, T/C",[7],104%
same,"viability, T/C",[8],114%
same,"viability, T/C",[9],92.2%
same,"viability, T/C",[10],106%
same,"viability, T/C",[11],96%
same,"viability, T/C",[12],94.3%
same,"viability, T/C",[13],101%
same,"viability, T/C",[14],113%
same,"viability, T/C",[15],108%
same,"viability, T/C",[16],99.5%
same,"viability, T/C",[17],102%
same,"viability, T/C",[18],104%
same,"viability, T/C",[19],105%
same,"viability, T/C",[20],108%
same,"viability, T/C",[21],111%
same,"viability, T/C",[22],108%
same,"viability, T/C",[23],105%
same,"viability, T/C",[24],82.2%
same,"viability, T/C",[25],103%
same,"viability, T/C",[26],99.3%
same,"viability, T/C",[27],98.6%
same,"viability, T/C",[28],98.7%
same,"viability, T/C",[29],93.9%
same,"viability, T/C",[30],99.3%
same,"viability, T/C",[31],102%
same,"viability, T/C",[32],121%
same,"viability, T/C",[33],94.8%
same,"viability, T/C",[34],96.1%
same,"viability, T/C",[35],79.8%
same,"viability, T/C",[36],93.1%
Nc1ccn(C2OC(CO)C(O)C2(F)F)c(=O)n1 (stereo unspecified) + Nc1ccc(C#CCN(C(=O)Cc2ncc(C(F)(F)F)cc2C(F)(F)F)c2ccc(F)cc2)nn1,IC50,second compound 0.0316 µM,> 10 µM
same,IC50,second compound 0.1 µM,> 10 µM
same,IC50,second compound 0.316 µM,> 10 µM
same,IC50,second compound 1 µM,> 10 µM
same,IC50,second compound 3.16 µM,> 10 µM
same,IC50,second compound 10 µM,> 10 µM
same,"viability, T/C",[1],92.5%
same,"viability, T/C",[2],100%
same,"viability, T/C",[3],87.8%
same,"viability, T/C",[4],89.5%
same,"viability, T/C",[5],80.7%
same,"viability, T/C",[6],72.5%
same,"viability, T/C",[7],109%
same,"viability, T/C",[8],108%
same,"viability, T/C",[9],101%
same,"viability, T/C",[10],68.2%
same,"viability, T/C",[11],67.9%
same,"viability, T/C",[12],47.3%
same,"viability, T/C",[13],97.9%
same,"viability, T/C",[14],102%
same,"viability, T/C",[15],81.8%
same,"viability, T/C",[16],92.9%
same,"viability, T/C",[17],92%
same,"viability, T/C",[18],66.2%
same,"viability, T/C",[19],102%
same,"viability, T/C",[20],99.6%
same,"viability, T/C",[21],84%
same,"viability, T/C",[22],74.4%
same,"viability, T/C",[23],88.7%
same,"viability, T/C",[24],77.5%
same,"viability, T/C",[25],100%
same,"viability, T/C",[26],105%
same,"viability, T/C",[27],84.7%
same,"viability, T/C",[28],83.8%
same,"viability, T/C",[29],70.8%
same,"viability, T/C",[30],84.5%
same,"viability, T/C",[31],102%
same,"viability, T/C",[32],113%
same,"viability, T/C",[33],89%
same,"viability, T/C",[34],94.1%
same,"viability, T/C",[35],89.7%
same,"viability, T/C",[36],74.2%
CC1COCCN1c1cc(C2(O)CC3CCC(C2)O3)c2cnn(-c3ccn[nH]3)c2n1 (stereo unspecified) + COC1C(OC(N)=O)C(O)C(Oc2ccc3c(O)c(NC(=O)c4ccc(O)c(CC=C(C)C)c4)c(=O)oc3c2C)OC1(C)C,IC50,second compound 0.0316 µM,0.234 µM
same,IC50,second compound 0.1 µM,0.276 µM
same,IC50,second compound 0.316 µM,0.29 µM
same,IC50,second compound 1 µM,> 10 µM
same,IC50,second compound 3.16 µM,> 10 µM
same,IC50,second compound 10 µM,> 10 µM
same,"viability, T/C",[1],72.4%
same,"viability, T/C",[2],70.1%
same,"viability, T/C",[3],42.2%
same,"viability, T/C",[4],36.9%
same,"viability, T/C",[5],40.1%
same,"viability, T/C",[6],52%
same,"viability, T/C",[7],75.6%
same,"viability, T/C",[8],81.3%
same,"viability, T/C",[9],36%
same,"viability, T/C",[10],37.9%
same,"viability, T/C",[11],50.3%
same,"viability, T/C",[12],60.8%
same,"viability, T/C",[13],84.2%
same,"viability, T/C",[14],66.8%
same,"viability, T/C",[15],41.2%
same,"viability, T/C",[16],51.1%
same,"viability, T/C",[17],51.4%
same,"viability, T/C",[18],50.8%
same,"viability, T/C",[19],82.9%
same,"viability, T/C",[20],68%
same,"viability, T/C",[21],59.5%
same,"viability, T/C",[22],55.3%
same,"viability, T/C",[23],64.2%
same,"viability, T/C",[24],42.8%
same,"viability, T/C",[25],82.8%
same,"viability, T/C",[26],68.1%
same,"viability, T/C",[27],47.9%
same,"viability, T/C",[28],48.9%
same,"viability, T/C",[29],61.7%
same,"viability, T/C",[30],50.8%
same,"viability, T/C",[31],71.3%
same,"viability, T/C",[32],60.5%
same,"viability, T/C",[33],41.1%
same,"viability, T/C",[34],58.3%
same,"viability, T/C",[35],61.7%
same,"viability, T/C",[36],63.6%

# From PubChem BioAssay AID1963825 (Molecular Pharmacology Branch, DTP, NCI, 2024)
